In US20090068143A1, “ORALLY EFFECTIVE C[…]” (priority 2005, published 2009):
Marks after values point to notes of the source that are not given here.

Key:
[1] = biological target: CB2 receptor (Homo sapiens, UniProt P34972); assay: CB2 binding assay
[2] = Stability in aqueous solutions; assay type: physicochemical; details: 2 mg/ml in phosphate buffer (pH 7.0), 4° C.
Description: Stability of compounds of the invention in aqueous solutions was compared. Compounds were dissolved in buffer phosphate solutions and their concentration monitored using HPLC and spectrophotometer methodology. While compound 18F at concentration of 2 mg/ml in phosphate buffer (pH 7.0) was stable for at least 3 months at 4° C., compound 18B at concentration of 95 μg/ml in citrate buffer (pH 7.1) readily hydrolyzed in less than 24 hours at 4° C. Therefore, compounds that were designed following the same rational yielded unexpectedly divergent outcome, for instance in connection with stability in aqueous solutions.

[3] = tested on: IL-1β; assay: Real-time RT-PCR gene expression in CNS of MOG induced EAE: IL-1β; assay type: in vivo, mouse
Description: (§1) Total RNA is prepared using SV total RNA isolation system (Promega). The brains and spinal cords, which were removed on day 31 from five animals treated with vehicle (i.e. untreated) or 40 mg/kg p.o. of compound 18F (i.e. treated) in the MOG-induced EAE study, were homogenized in lysis buffer. The lysates were transferred to an RNA isolation column, treated with DNAse, washed and eluted according to kit instructions. RNA concentrations were determined using GeneQuant II (Pharmacia-Amersham). Complementary DNA (cDNA) was synthesized from total RNA using […] II reverse transcriptase (Life Technologies). 2 μg of total RNA were combined with an oligo (dT)15 primer, 0.5 mM dNTP mix, 8 units of reverse transcriptase and other reaction components up to a final volume of 20 μl, according to the kit instructions. The reaction mixture was incubated at 42° C. for 45 min and inactivated at 70° C. for 15 minutes. Quantitative real-time RT-PCR included 1 μl of the cDNA, 300 nM of the appropriate forward and reverse primers (according to the gene monitored) and 7.5 μl of the reaction mix containing buffer, nucleotides, Taq polymerase and SYBER green (SYBER Green master mix, Applied Biosystems), in a total reaction volume of 15 μl. Gene amplification was obtained using the GeneAmp 5700 sequence detection system (Applied Biosystems). […] During each annealing step, the amount of the amplified product was measured by the fluorescence of the double strand DNA binding dye, SYBER Green. The cycle of threshold (CT), representing the PCR cycle at which an increase in fluorescence above a baseline signal can be first detected, was determined for each product. […] Results were expressed as fold increase of gene expression in treated or untreated animals above the naive animals. […]
The results expressed as folds gene expression over naive animals (following normalization to Cyclophilin) are compiled in the following table. […] Statistical significance was analyzed by unpaired two-tailed t-test and one asterisk (*) indicates statistical significance of p<0.05, whereas ** indicates statistical significance of p<0.01.

[4] = biological target: CB1 receptor (Homo sapiens, UniProt P21554); assay: CB1 binding assay
[5] = tested on: chronic constriction induced neuropathic pain; assay: Chronic constriction induced neuropathic pain (Von Frey filaments); assay type: in vivo, Sprague-Dawley rats
Description: A peripheral monopathy was induced in the right hind limb of rats following a chronic constriction of the sciatic nerve according to Bennet et al. [Bennet, G. J. & Xie, Y-K., Pain 33: 87-107, 1988]. The development of mechanical allodyna was monitored using an established behavioral test (Von Frey filaments).
Pre-surgery baseline values were ascertained as the mean of 2 pre-surgery values. Once the baseline values had been established, the animals were surgically prepared by constricting the right sciatic nerve with 4 chromic cat gut loose ligatures. On day 11 post-operation, the animals that have developed mechanical allodyna were arbitrarily allocated to the various treatment groups based on the pre-surgery values.
The design was randomized, performed in a masked fashion as to whether drug or vehicle is being given. The animals, male Sprague-Dawley rats (average body weight 240-290 g, Harlan, Israel), were allowed to acclimatize to the behavioral testing equipment prior to testing. […] The filaments were applied in ascending order starting with the weakest force and the withdrawal threshold for both the ipsilateral and contralateral hind paws was evaluated. […] The withdrawal threshold is defined as being the lowest force of two or more consecutive Von Frey's filaments to elicit a reflex withdrawal response (i.e. a brief paw flick) and is measured in grams.

[6] = tested on: MCP-1; assay: Real-time RT-PCR gene expression in CNS of MOG induced EAE: MCP-1; assay type: in vivo, mouse; details: 40 mg/kg p.o., day 31, over naive animals
Description: as §1, with “2 μg of total RNA were combined with an oligo (dT)15 primer, 0.5 mM dNTP mix, 8 units of reverse transcriptase and other reaction components up to a final volume of 20 μl, according to the kit instructions. The reaction mixture was incubated at 42° C. for 45 min and inactivated at 70° C. for 15 minutes.” left out, “μl.” for “μl. Gene amplification was obtained using the GeneAmp 5700 sequence detection system (Applied Biosystems).”

Sequence of CB2 receptor (P34972 whole entry): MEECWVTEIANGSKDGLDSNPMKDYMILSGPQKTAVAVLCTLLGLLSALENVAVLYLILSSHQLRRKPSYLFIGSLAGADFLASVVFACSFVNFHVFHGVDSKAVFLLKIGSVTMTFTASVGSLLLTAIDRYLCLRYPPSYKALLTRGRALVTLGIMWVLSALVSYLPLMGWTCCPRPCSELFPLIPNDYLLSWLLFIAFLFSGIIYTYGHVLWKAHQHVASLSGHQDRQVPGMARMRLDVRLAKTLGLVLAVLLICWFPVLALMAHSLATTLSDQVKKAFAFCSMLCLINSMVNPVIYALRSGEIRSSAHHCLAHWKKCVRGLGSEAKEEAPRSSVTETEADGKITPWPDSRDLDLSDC
Sequence of CB1 receptor (P21554 whole entry): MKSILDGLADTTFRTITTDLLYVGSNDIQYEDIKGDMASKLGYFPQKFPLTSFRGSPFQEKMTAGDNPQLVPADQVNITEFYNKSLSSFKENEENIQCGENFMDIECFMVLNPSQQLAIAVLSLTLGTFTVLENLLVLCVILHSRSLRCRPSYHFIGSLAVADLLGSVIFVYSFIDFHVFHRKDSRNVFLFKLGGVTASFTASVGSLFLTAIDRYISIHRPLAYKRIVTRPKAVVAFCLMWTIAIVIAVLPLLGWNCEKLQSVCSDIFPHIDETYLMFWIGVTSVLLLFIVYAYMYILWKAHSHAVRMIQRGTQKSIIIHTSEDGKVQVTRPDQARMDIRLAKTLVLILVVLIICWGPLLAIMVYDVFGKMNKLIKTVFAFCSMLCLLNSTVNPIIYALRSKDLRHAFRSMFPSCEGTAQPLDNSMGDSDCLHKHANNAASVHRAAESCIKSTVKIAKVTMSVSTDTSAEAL

CCCCCCC(C)(C)c1cc(O)c([C@H]2CC(=O)C3CC2C3(C)C)c(OC(=O)/C=C/C(=O)O)c1 (single isomer, unassigned; (-)) [Compound 18F, (−)-4-{4-[1,1-Dimethylheptyl]-2-fumarate-6-hydroxy-phenyl}-6,6-dimethyl-bicyclo[3.1.1]heptan-2-one]
IC50 [1]: 9 nM
time stable in solution [2]: at least 3 months
Fold gene expression IL-1β, Brain, Treated ([3]; 40 mg/kg p.o., day 31, over naive animals, untreated 5.5): 3* fold
Fold gene expression IL-1β, Spinal Cord, Treated ([3]; 40 mg/kg p.o., day 31, over naive animals, untreated 11): 4* fold
IL-1β overexpression in brain and spinal cord ([3]; treated p.o., untreated 5 to 11-fold): 3-4 fold
IC50 [4]: 334 nM
effect on neuropathic pain ([5]; 20 mg/kg p.o.): little effect
effect on neuropathic pain ([5]; 40 mg/kg p.o.): as strong as 5 mg/kg morphine administered subcutaneously
Fold gene expression MCP-1, Brain, Treated [6]: 5.5 fold
Fold gene expression MCP-1, Spinal Cord, Treated ([6]; untreated 19): 68 fold
